“Also recorded” adds a separate entry of the source.

Assay [1] has as its system activated PBMC and T-lymphocytes. The settings on record: activated PBMC and T-lymphocytes in vitro; cited from earlier work.
In the next assay the target is neurokinin-1 receptor (Homo sapiens, UniProt P25103). The settings on record: cited from earlier work.
The target of another assay is T1, DPP-IV (Homo sapiens, UniProt P27487).
T1 construct: the Cohn manufacturing process which isolates other plasma components such as DPP-IV; tissue CSL Behring LLC; Grifols Biologicals Inc; Octapharma USA Inc. (5% HSA products that contain the enzyme); host or cells: human plasma (Cohn fractionation; commercial 5% HSA solution)
T1 sequence (P27487 39-766 limits assumed): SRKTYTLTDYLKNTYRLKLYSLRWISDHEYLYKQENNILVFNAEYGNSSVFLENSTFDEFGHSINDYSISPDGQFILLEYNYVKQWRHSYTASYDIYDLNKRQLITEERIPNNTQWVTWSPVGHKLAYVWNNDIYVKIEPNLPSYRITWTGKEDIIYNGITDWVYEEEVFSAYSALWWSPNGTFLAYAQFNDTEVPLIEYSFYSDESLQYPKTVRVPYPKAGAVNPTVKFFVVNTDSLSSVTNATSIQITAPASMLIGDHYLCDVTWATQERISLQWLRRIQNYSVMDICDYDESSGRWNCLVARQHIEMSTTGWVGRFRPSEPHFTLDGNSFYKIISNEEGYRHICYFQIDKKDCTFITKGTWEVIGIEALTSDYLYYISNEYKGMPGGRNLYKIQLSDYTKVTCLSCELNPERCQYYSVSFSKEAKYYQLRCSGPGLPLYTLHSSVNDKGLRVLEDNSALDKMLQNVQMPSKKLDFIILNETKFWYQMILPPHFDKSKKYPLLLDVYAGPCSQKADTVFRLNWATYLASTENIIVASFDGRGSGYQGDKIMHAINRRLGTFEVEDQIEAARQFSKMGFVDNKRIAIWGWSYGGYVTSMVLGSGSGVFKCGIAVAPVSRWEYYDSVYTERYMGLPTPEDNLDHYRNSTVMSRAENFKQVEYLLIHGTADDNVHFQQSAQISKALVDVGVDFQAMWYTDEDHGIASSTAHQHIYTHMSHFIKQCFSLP
The assay can be described thus: DA-DKP formation in 5% commercial HSA heated at 60° C., <5 kDa fraction by LCMS. Type of assay: biochemical. As to the method:
For the analysis of DA-DKP formation, an aliquot was added to a microcentrifugal filter (Vivaspin 2, MWCO 5,000, Sartorius Stedim Biotech, Goettingen, Germany). Filters were centrifuged at 3,500 rpm for 30 minutes at room temperature. The <5 kDa fraction was collected and transferred to a separate, storage tube for LCMS analysis.
Each <5 kDa fraction & DA-DKP synthetic standard (20-2000 ng/mL) were spiked with 0.01 mM L-Tryptophan-d5 (indole-d5) which was used as an internal standard. 50 μL was injected into a strong anion exchange column (Spherisorb, S5 SAX 250 mm×4.0 mm, Waters, Milford, Mass., USA) connected to high performance liquid chromatography (HPLC, Waters 2795 Separations Module, Milford, Mass., USA) coupled to a mass spectrometer (LCT-TOF, Micromass, UK). […]
The output of the HPLC was split 1:20 (v/v) and injected into the mass spectrometer using negative electrospray ionization (−ESI) with a scan range of 80 to 1000 m/z, cone voltage of 30 eV, source temperature of 100° C., and gas temperature of 300° C. DA-DKP was measured by monitoring [M]=185, which corresponds to DA-DKP minus a single proton (—H+). The straight chain of DA-DKP, Asp-Ala, can also be analyzed with this method by monitoring [M]=203.
The formation of the DKP, DA-DKP, was measured in a commercial HSA solution heated at 60° C. in the presence or absence of a known DPP-IV inhibitor (diprotin A). […]

The target of assay [2] is T2, dipeptidyl peptidase IV (DPP-IV) (Homo sapiens, UniProt P27487).
T2 construct: the Cohn manufacturing process which isolates other plasma components such as DPP-IV; tissue CSL Behring LLC; Grifols Biologicals Inc; Octapharma USA Inc. (5% HSA products that contain the enzyme); host or cells: human plasma (Cohn fractionation; commercial 5% HSA solution)
T2 sequence (P27487 39-766 limits assumed): as above
Nature of the assay: DPP-IV activity assay with chromogenic substrate Gly-Pro-pNA in HSA solutions. The class given is biochemical. To be noted: 1 mM diprotin A pre-incubated 15 minutes at 37° C.; Gly-Pro-pNA 1 mM; 24 hour incubation at 37° C.
Description: DPP-IV activity was assayed by using a chromogenic substrate, Gly-Pro-pNA, as described in E. Nemoto, S. Sugawara, H. Takada, et al., Increase of CD26/dipeptidyl peptidase IV expression on human gingival fibroblasts upon stimulation with cytokines and bacterial components. […] All reactions were carried out in DPP-IV assay buffer (pH 7.6) consisting of 0.1M HEPES, 0.12M NaCl, 5 mM KCl, 8 mM glucose, and 10 mg/ml bovine serum albumin (BSA). 5% commercial HSA, recombinant HSA, or buffer blank (0.9% NaCl) were combined with 1 mM Gly-Pro-pNA (DPP-IV substrate) in assay buffer or assay buffer only (−CON). Incubations were performed at 37° C. or 60° C. for 2-24 hours. For DPP-IV inhibition studies, 1 mM diprotin A in assay buffer was pre-incubated with the HSA solutions for 15 minutes at 37° C. prior to DPP-IV substrate addition. All incubations were read at 405 nm (SpectraMax M2 spectrophotometer, Molecular Devices LLC, Sunnyvale, Calif., USA). Each reading at 405 nm was corrected by subtracting the A405 for the DPP-IV substrate-containing incubation from the corresponding A405 for the −CON incubation for each HSA solution tested.
The amount of pNA produced in μM was calculated based on the pNA molar extinction coefficient in HEPES buffer (see R. Lottenberg, C. M. Jackson, Solution composition dependent variation in extinction coefficients for p-nitroaniline. Biochim Biophys Acta 742 (1983) 558-64). […] Groups were compared using a two tailed students' T-test with a significance level at p<0.05. All data is reported as mean±SD.
Dipeptidyl peptidase IV (DPP-IV) activity was assessed in commercial preparations of human serum albumin (HSA). […] The resulting liberation of a chromogen, pNA, was measured spectrophotometrically at 405 nm.

Sequence of neurokinin-1 receptor (P25103 whole entry): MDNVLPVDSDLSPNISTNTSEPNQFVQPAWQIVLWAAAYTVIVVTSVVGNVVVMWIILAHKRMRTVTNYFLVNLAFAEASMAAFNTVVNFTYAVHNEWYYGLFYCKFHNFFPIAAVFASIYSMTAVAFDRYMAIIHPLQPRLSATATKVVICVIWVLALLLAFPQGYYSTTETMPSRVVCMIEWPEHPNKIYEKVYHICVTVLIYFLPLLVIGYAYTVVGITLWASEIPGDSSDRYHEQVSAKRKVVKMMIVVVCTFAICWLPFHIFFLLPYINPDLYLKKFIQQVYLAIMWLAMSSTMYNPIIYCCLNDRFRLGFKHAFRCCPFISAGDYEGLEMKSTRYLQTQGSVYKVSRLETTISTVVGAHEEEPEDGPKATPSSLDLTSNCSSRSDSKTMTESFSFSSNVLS

Take `CC1NC(=O)C(CC(=O)O)NC1=O` (centres unmarked) [DA-DKP, 3-methyl-2,5-diketopiperazine-6-acetic acid]: the Immunosuppressive effects entry in assay [1] is “immunosuppressive effects”. In the case of `CC(=O)N[C@@H](Cc1c[nH]c2ccccc12)C(=O)O` [NAT, N-acetyl-tryptophan], the “Antagonism of the neurokinin-1 receptor” value on neurokinin-1 receptor is reported as “well-known antagonist”. Ile-Pro-Ile [diprotin A]: the “Decrease of amount of DA-DKP produced with inhibitor” value on DPP-IV (24 hour period, commercial HSA) is reported as approximately 3 fold. For the same compound, on DPP-IV (24 hours, 5% commercial HSA plus diprotin A), the “Increase in DA-DKP production in the presence of the DPP-IV inhibitor” value is given as 10%. The “DPP-IV activity in commercial HSA in the presence of DPP-IV inhibitor” value in assay [2] was “completely suppressed; also recorded: complete suppression of DPP-IV activity; also recorded: abolished”.

Source of the values: patent US20150366932A1, “METHODS FOR PRODUCING DIKETOPIPERAZINES AND COMPOSITIONS CONTAINING DIKETOPIPERAZINES” (AMPIO PHARMACEUTICALS, INC., priority 2013, published 2015).
